Experimental data reported in patent US20140349943A1, “TOPICAL FORMULATIONS OF CHEMERIN C15 PEPTIDES FOR THE TREATMENT OF DERMATOLOGICAL CONDITIONS” (priority 2011, published 2014).
pIC50: −log10 of the molar value. Peptide text beside a SMILES is read from it.

Columns and labels:
[1] = target: T1, GPR1 (Homo sapiens, UniProt P46091); experiment: PathHunter β-Arrestin assay, GPR1, agonist and antagonist mode; type: cell-based; conditions: for agonist activity, in words: FIG. 2A/2B
T1 construct: host or cells: CHO
T1 sequence (P46091 1-355): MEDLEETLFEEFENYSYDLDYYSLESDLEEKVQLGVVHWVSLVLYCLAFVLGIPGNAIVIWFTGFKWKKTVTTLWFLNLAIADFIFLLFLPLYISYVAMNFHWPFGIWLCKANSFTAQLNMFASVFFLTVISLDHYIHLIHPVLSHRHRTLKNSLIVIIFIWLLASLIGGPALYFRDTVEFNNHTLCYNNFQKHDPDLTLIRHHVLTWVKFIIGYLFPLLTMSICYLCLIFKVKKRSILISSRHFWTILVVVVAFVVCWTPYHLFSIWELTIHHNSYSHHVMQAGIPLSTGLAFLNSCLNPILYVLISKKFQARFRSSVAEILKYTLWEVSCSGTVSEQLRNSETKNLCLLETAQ
Experimental: (§1) The DiscoveRx PathHunter™ eXpress GPCR activity assay was employed to test agonist and antagonist activities of the chemerin peptides against the GPCRs ChemR23 and GPR1. Two assay formats were tested, the PathHunter β-Arrestin assay and the Hit Hunter cAMP Hunter assay.
(§2) The PathHunter β-Arrestin assay monitors the activation of a GPCR in a homogenous, non-imaging assay format using a technology developed by DiscoveRx called complementation, which utilizes an enzyme fragment complementation (EFC) assay with β-galactosidase (β-Gal) as the functional reporter. The enzyme is split into two complementary portions expressed as fusion proteins in the cell. The Enzyme Acceptor (EA) is fused to β-Arrestin and the ProLink donor peptide is fused to the GPCR of interest. Upon GPCR stimulation, β-Arrestin is recruited to the receptor for desensitization, bringing the two fragments of β-Gal together and allowing complementation to occur.
(§3) The assay involves CHO cell lines that express 1) a GPCR of interest (e.g. ChemR23 or GPR1) that has a fragment of the βgal enzyme fused to the C-terminus of the receptor and 2) a β-arrestin fused to the main β-gal enzyme. When the agonist binds to the receptor, β-arrestin is recruited to the receptor and the β-gal enzyme is complemented by the fragment from the GPCR thus forming a functional β-gal enzyme. A substrate is then added and luminescence is generated to detect β-arrestin recruitment.
(§4) The protocol used was a standard protocol employed by DiscoveRx PathHunter™ profiling service. […] Once it was established that the cells were healthy and growing normally, cells were passaged from flasks using cell dissociation reagent and seeded into white walled clear bottom 384-well microplates for compound profiling. For profiling, cells were seeded at a density of 5000 cells per well in a total volume of 20 μL and were allowed to adhere and recover overnight prior to compound addition.
(§5) For the agonist assay, intermediate dilution of compound stocks were generated such that 5 μL of 5× compound could be added to each well with a final DMSO concentration of 1% of total volume. For profiling compound in agonist mode, the cells were incubated in the presence of compound at 37° C. for 90 minutes.
(§6) For the antagonist assay, agonist dose curves were performed the morning of profiling to determine the EC80 value for the following antagonist testing with compounds. 5 μL of 5× agonist (i.e. chemerin) was added to each well with an equal concentration of vehicle present. EC80 agonist concentration was determined directly from agonist dose curve. For antagonist determination, cells were preincubated with antagonist followed by agonist challenge at the EC80 concentration: 4. 5 μL of 5× compound added to cells and incubated at 37° C. for 30 minutes. 5. 5 μL of 6× EC80 agonist added to cells and incubated at 37° C. for 90 minutes.
(§7) Microplates were read following signal generation with a PerkinElmer Envision™ instrument for chemiluminescent signal detection
(§8) Dose curves in the presence and absence of compound were plotted using GraphPad Prism or Activity Base. For agonist mode assays, percentage activity was calculated using the following formula: % Activity=100%×(Mean RLU of test sample−mean RLU of vehicle control)/(mean MAX RLU control ligand−mean RLU of vehicle control)). For antagonist mode assays, percentage inhibition was calculated using the following formula: % Inhibition=100%×(1−(Mean RLU of test sample−mean RLU of vehicle control)/(mean RLU of EC80 control−mean RLU of vehicle control)).

[2] = target: T2, ChemR23 (CMKLR1) (Homo sapiens, UniProt Q99788); experiment: PathHunter β-Arrestin assay, ChemR23 (CMKLR1), agonist and antagonist mode; type: cell-based
T2 construct: host or cells: CHO
T2 sequence (Q99788 1-373): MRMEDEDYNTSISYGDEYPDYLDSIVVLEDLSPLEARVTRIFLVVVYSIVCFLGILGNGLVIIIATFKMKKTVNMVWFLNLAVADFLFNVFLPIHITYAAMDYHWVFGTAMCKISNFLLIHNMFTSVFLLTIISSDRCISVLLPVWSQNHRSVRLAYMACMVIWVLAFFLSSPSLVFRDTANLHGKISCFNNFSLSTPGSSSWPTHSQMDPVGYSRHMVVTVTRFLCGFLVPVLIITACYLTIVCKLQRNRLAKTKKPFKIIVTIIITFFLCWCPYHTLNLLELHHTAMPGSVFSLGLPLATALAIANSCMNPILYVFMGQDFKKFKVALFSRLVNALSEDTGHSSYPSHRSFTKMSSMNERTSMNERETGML
Experimental: as §1, §2, §3, §4, §5, §6, §7, §8

[3] = target: T3, mChemR23 (Mus musculus, UniProt P97468); experiment: PathHunter β-Arrestin assay, mouse ChemR23; type: cell-based
T3 construct: host or cells: CHO (stated generally for the PathHunter assay)
T3 sequence (P97468 1-371): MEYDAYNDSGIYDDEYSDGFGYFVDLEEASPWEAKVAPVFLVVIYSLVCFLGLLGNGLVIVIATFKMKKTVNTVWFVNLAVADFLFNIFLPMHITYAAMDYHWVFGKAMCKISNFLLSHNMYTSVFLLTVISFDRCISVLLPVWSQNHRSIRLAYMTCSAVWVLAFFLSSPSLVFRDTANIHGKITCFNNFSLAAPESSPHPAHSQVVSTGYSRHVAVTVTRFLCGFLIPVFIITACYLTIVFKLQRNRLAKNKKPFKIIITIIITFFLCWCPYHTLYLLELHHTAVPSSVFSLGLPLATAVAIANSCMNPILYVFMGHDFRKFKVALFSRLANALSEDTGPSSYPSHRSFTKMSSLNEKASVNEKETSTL
Experimental: as §1, §2, §3, §4, §5
For the antagonist assay, agonist dose curves were performed the morning of profiling to determine the EC80 value for the following antagonist testing with compounds. 5 μL of 5× agonist (i.e. chemerin) was added to each well with an equal concentration of vehicle present. EC80 agonist concentration was determined directly from agonist dose curve. For antagonist determination, cells were preincubated with antagonist followed by agonist challenge at the EC80 concentration: 4. 5 μL of 5× compound added to cells and incubated at 37° C. for 30 minutes. 5. […]
as §7, §8

[4] = target: T4, ChemR23 (Homo sapiens, UniProt Q99788); experiment: Hit Hunter cAMP Hunter assay, human ChemR23; type: cell-based
T4 sequence (Q99788 1-373): T2 sequence (Q99788 1-373)
Experimental: as §1
as §4, with “reagent buffer” for “reagent”, “10000” for “5000”, “addition. Cells were treated the following day using the protocols shown below. cAMP modulation was determined using the DiscoveRx HitHunter cAMP XS+ assay.” for “addition.”
For profiling compound in agonist mode, the cells were incubated in the presence of compound at 37° C. for 30 minutes.
EC80 agonist concentration was determined directly from agonist dose curve.
Microplates were read following signal generation with a PerkinElmer Envision™ instrument for chemiluminescent signal detection.
Dose curves in the presence and absence of compound were plotted using GraphPad Prism or Activity Base.

[5] = tested on: IFNγ/LPS stimulated human macrophages; experiment: Cytokine secretion by IFNγ/LPS stimulated human macrophages (Luminex); type: cell-based
From the text: In this example, the ability of human chemerin C15 to inhibit secretion of cytokines from activated human macrophages was examined. For this experiment, the activity of the human chemerin C15 peptide […] (SEQ ID NO: 1) was compared to that of the human chemerin C17 peptide […] (SEQ ID NO: 25). The C15 and C17 peptides were synthesized by solid phase synthesis using BOP coupling of FMOC protected amino acids with final cleavage from the resin with TFA. Peptides were purified by reverse phase C18 chromatography using a water/acetonitrile gradient.
Human macrophages were derived from human CD14+ monocytes obtained from 3 donors. On Day 1, the isolated monocytes were thawed and seeded in triplicate for each group in 1 ml RPMI 1640 GlutaMAX™ media (supplemented with 10% FBS, 100 U/ml penicillin, 100 μg/ml streptomycin, 0.05 μM mercaptoethanol, 1% NEAA and 1% sodium pyruvate) per well of a 24 well cell culture dish at a cell concentration of 5×10^5 cells/ml. M-CSF was added to each well to give a final concentration of 25 ng/ml. Cells were grown for 7 days at 37° C. with 5% CO2 to differentiate the cells into macrophages. Media and M-CSF were replaced after 4 days.
Following differentiation, the media containing M-CSF was removed. The cells were washed and vehicle control, dexamethasone, C15 or C17 were added to the appropriate wells. The test peptides were dissolved in 50% DMSO/water prior to addition. C-15 (MW 1669; 16.7 mg/ml) was added to a final concentration of […] and C17 (MW 1904; 19.0 mg/ml) was added to a final concentration of 1 μM. Dexamethasone was added to a final concentration of 1 μM. Following addition to the wells, the plates were incubated at 37° C. with 5% CO2 for 1 hour. An equal volume of complete media was added to the non-treated wells. Control or test treatments were maintained at the correct concentration throughout the assay.
IFNγ (final concentration 20 ng/ml) was then added to the appropriate wells. Following IFNγ addition, the plates were incubated at 37° C. with 5% CO2 for 4 hours. The concentration of vehicle control, test treatments or dexamethasone was maintained during IFNγ stimulation. LPS (final concentration 10 ng/ml) was then added to the appropriate wells. Following LPS addition, the plates were incubated at 37° C. with 5% CO2 for 15 hours. After 6 hours, ˜60 μl of culture supernatant was removed from all wells and stored at −80° C. for analysis. The concentration of vehicle control, test treatments or dexamethasone was maintained during LPS stimulation.
At 15 hours post LPS stimulation, the remaining cell culture supernatant was harvested and stored at −80° C. until assayed. The concentration of vehicle control, test treatments or dexamethasone was maintained until culture termination.
Cell culture supernatants taken at 6 hours and 15 hours post LPS addition were assayed for the production of RANTES, TNFα, IL-1β, IL-6, IL-10, IL-12p40 (subunit common to IL-12 and IL-23) and IL-15 (negative control) using Luminex® technology (Procarta human cytokine kit; Panomics) following the manufacturer's instructions.
In this experiment, the importance of the FYFP motif (SEQ ID NO: 2) in the human chemerin C15 peptide on anti-inflammatory activity was examined. The ability of the human chemerin C15 peptide […] (SEQ ID NO: 1) was compared to that of a substituted chemerin C15 peptide having the amino acid sequence […] (SEQ ID NO: 27), where the second phenylalanine in the peptide is modified to alanine. The experiment was performed as described in Example 1. 0.1 pM 0.5 pM and 1 pM concentrations of the C15 and C15 mutant peptides were tested. Cytokine expression was determined as described in Example 1.

[6] = tested on: psoriasis patients; conditions: cited from earlier work
[7] = Example 3, 0.1 pM 0.5 pM and 1 pM tested, FIG. 3

C[C@H](N)C(=O)NCC(=O)N[C@@H](CCC(=O)O)C(=O)N[C@@H](CC(=O)O)C(=O)N1CCC[C@H]1C(=O)N[C@@H](Cc1c[nH]cn1)C(=O)N[C@@H](CO)C(=O)N[C@@H](Cc1ccccc1)C(=O)N[C@@H](Cc1ccc(O)cc1)C(=O)N[C@@H](Cc1ccccc1)C(=O)N1CCC[C@H]1C(=O)NCC(=O)N[C@@H](CCC(N)=O)C(=O)N[C@@H](Cc1ccccc1)C(=O)N[C@@H](C)C(=O)N[C@@H](Cc1ccccc1)C(=O)O [C16 (human)] (H-AGEDPHSFYFPGQFAF-OH; N-terminus and C-terminus assumed)
pIC50 [1]: < 5.00 | agonist activity, in words ([1]; GPR1): exhibited agonist activity | Rank Order ([1]; GPR1, agonist): 2 | % Max Activity ([1]; GPR1, agonist mode): 87.9% | % Max Inhibition ([1]; GPR1, antagonist mode, chemerin at EC80): 0% | pIC50 [2]: < 5.00 | Rank Order ([2]; ChemR23, agonist): 1 | % Max Activity ([2]; ChemR23, agonist mode): 98.6% | % Max Inhibition ([2]; ChemR23, antagonist mode, chemerin at EC80): 0% | agonist activity, in words ([2]; human ChemR23, FIG. 2A/2B): exhibited agonist activity | pIC50 [3]: < 5.00 | pIC50 [4]: < 5.00

C[C@@H]1C[C@H]2[C@@H]3CCC4=CC(=O)C=C[C@]4(C)[C@@]3(F)[C@@H](O)C[C@]2(C)[C@@]1(O)C(=O)CO [Dexamethasone]
inhibition of IL-1β secretion ([5]; 1 μM dosage): approximately 30% | inhibition of RANTES secretion ([5]; 1 μM dosage): ~50% | inhibition at 1 µM ([5]; Homo sapiens, Macrophage, dexamethasone 1 μM, read-out: inhibition of the production of IL-10): ~70%

AGEDPHGYFAPGQFA [mutant C15 polypeptide]
percent inhibition of RANTES expression [5, 7]: unable to inhibit expression | percent inhibition of TNFα expression [5, 7]: unable to inhibit expression

Stelara: approved systemic mono-clonal antibody for psoriasis, clears IL-23
time of maximal serum concentrations ([6]; post-injection): 5 days | improvement in PASI score ([6]; within two weeks after a single dose): 50%

hrChemerin: chemerin protein, control agonist of ChemR23 and GPR1
agonist activity, in words ([1]; GPR1): potent agonist activity | EC50 ([3]; Arrestin, Agonist, mChemR23, read-out: RC50 (uM), EC50): 0.00154 µM
